According to patent publication US9266848B2, “4-alkoxy-N-(2-hydroxycarbamoyl-2-piperidinyl-ethyl)-benzamide compounds as selective TACE-inhibitors for the treatment of inflammatory diseases” (GALDERMA RESEARCH & DEVELOPMENT, priority 2009, dated 2016):

Legend:
TACE enzyme = TACE enzyme (Homo sapiens, UniProt P78536); assay: Enzymatic test of TACE inhibition; assay type: biochemical
MMP1 = MMP1 (Homo sapiens (Human), UniProt P03956); assay: Selectivity test MMP1; assay type: biochemical
ADAM10 = ADAM10 (Homo sapiens (Human), UniProt O14672); assay: Selectivity test ADAM10; assay type: biochemical
Chain of ADAM10 (O14672 214-748, species assumed): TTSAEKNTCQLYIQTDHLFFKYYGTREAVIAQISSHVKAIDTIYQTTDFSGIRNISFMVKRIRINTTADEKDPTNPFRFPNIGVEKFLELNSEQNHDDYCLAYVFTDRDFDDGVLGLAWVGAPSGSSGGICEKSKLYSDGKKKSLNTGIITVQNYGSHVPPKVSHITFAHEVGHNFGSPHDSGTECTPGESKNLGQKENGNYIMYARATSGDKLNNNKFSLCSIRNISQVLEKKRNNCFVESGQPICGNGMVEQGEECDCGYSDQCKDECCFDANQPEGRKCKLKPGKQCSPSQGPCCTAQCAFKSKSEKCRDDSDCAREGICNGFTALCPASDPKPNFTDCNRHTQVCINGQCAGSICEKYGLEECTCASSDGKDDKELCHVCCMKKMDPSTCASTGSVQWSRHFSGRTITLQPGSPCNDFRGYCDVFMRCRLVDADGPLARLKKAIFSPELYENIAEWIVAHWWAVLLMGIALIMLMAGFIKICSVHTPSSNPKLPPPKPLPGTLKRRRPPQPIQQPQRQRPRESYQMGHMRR

MMP3 = MMP3 (Homo sapiens (Human), UniProt P08254); assay: Selectivity test MMP3; assay type: biochemical
Chain of MMP3 (P08254 100-477, species assumed): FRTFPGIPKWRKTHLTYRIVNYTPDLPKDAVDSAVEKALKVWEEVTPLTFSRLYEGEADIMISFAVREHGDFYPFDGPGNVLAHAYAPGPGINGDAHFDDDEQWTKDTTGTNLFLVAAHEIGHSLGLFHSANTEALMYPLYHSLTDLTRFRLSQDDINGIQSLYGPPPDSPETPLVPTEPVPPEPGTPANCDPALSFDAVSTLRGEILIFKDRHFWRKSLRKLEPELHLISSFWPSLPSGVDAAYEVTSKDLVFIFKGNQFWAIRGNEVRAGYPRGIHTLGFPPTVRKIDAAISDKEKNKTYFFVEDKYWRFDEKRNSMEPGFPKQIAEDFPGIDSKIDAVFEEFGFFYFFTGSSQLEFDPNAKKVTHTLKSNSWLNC

Chain of TACE enzyme (P78536 215-824 limits assumed): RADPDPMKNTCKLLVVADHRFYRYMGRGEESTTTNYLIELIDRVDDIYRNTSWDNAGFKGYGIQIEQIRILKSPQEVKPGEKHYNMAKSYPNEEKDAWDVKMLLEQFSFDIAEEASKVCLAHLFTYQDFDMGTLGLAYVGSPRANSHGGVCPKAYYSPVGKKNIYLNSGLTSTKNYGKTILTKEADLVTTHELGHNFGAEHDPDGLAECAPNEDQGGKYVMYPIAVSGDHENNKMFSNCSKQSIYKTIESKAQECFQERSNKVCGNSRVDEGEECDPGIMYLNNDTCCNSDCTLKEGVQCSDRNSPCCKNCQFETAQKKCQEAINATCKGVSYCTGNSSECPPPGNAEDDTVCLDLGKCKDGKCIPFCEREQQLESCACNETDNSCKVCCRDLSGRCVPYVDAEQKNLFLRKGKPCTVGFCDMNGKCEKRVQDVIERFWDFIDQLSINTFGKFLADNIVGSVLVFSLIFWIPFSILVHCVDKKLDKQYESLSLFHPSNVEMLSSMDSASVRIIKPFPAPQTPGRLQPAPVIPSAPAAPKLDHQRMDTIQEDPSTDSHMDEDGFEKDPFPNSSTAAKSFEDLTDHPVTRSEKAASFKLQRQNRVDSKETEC
Chain of MMP1 (P03956 100-469, species assumed): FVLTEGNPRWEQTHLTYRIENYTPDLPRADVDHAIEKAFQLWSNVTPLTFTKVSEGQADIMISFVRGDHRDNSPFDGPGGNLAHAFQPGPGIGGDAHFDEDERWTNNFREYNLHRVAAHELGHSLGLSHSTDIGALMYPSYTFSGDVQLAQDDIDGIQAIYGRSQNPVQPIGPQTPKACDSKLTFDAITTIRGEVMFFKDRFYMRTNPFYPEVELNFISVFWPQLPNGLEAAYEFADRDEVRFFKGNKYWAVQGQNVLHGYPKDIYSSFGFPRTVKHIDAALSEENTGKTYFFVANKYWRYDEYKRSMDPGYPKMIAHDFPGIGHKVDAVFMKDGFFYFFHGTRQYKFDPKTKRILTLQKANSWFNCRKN

SMILES | % TACE inhibition at 10 μM (TACE enzyme) [%] | IC50 (TACE enzyme; fluorescent substrate 40 μM) [nM] | IC50 (MMP1) [nM] | IC50 (ADAM10) [nM] | IC50 (TACE enzyme; selectivity table) [nM] | IC50 (MMP3) [nM] | melting point [°C]
CC#CCOc1ccc(C(=O)NC[C@@H](C(=O)NO)N2CCCCC2)cc1 [Example 1, 4-but-2-ynyloxy-N—((S)-2-hydroxycarbamoyl-2-piperidin-1-ylethyl)benzamide] | 96 | 9 |  |  |  |  | 
O=C(NC[C@@H](C(=O)NO)N1CCCCC1)c1ccc(OCc2ccnc(-c3ccccc3)c2)cc1 [Example 4, N—((S)-2-hydroxycarbamoyl-2-piperidin-1-yl-ethyl)-4-(2-phenylpyridin-4-ylmethoxy)benzamide] | 100 |  |  |  |  |  | 
Cc1ccc(COc2ccc(C(=O)NC[C@@H](C(=O)NO)N3CCCCC3)cc2)c2ccccc12 [Example 7, N—((S)-2-hydroxycarbamoyl-2-piperidin-1-yl-ethyl)-4-(4-methylnaphthalen-1-ylmethoxy)benzamide] | 90 | 91 |  |  |  |  | 
O=C(NC[C@@H](C(=O)NO)N1CCOCC1)c1ccc(OCc2ccncc2)cc1 [Example 9, N—((S)-2-hydroxycarbamoyl-2-morpholin-4-ylethyl)-4-(pyridin-4-ylmethoxy)benzamide] | 92 | 428 |  |  |  |  | 
O=C(NC[C@@H](C(=O)NO)N1CCOCC1)c1ccc(OCc2ccnc(-c3ccccc3C(F)(F)F)c2)cc1 [Example 10, N—((S)-2-hydroxycarbamoyl-2-morpholin-4-ylethyl)-4-[2-(2-trifluoromethylphenyl)pyridin-4-yl-methoxy]benzamide] | 90 | 900 |  |  |  |  | 
CCN(CC)[C@@H](CNC(=O)c1ccc(OCc2cc(C)nc3ccccc23)cc1)C(=O)NO [Example 11, N—((S)-2-diethylamino-2-hydroxycarbamoyl-ethyl)-4-(2-methylquinolin-4-ylmethoxy)benzamide] | 91 | 232 |  |  | 232 |  | 

Other lines, results leading:

% TACE inhibition at 10 μM (TACE enzyme) [%] | IC50 (TACE enzyme; fluorescent substrate 40 μM) [nM] | IC50 (MMP1) [nM] | IC50 (ADAM10) [nM] | IC50 (TACE enzyme; selectivity table) [nM] | IC50 (MMP3) [nM] | melting point [°C] | SMILES
100 | 71 | 9950 | 6400 | 71 |  |  | Cc1cc(COc2ccc(C(=O)NC[C@@H](C(=O)NO)N3CCCCC3)cc2)c2ccccc2n1 [Example 2, N—((S)-2-hydroxycarbamoyl-2-piperidin-1-yl-ethyl)-4-(2-methylquinolin-4-ylmethoxy)benzamide]
97 | 255 |  |  |  |  |  | O=C(NC[C@@H](C(=O)NO)N1CCCCC1)c1ccc(OCc2cc(Cl)nc(Cl)c2)cc1 [Example 3, 4-(2,6-dichloropyridin-4-ylmethoxy)-N—((S)-2-hydroxycarbamoyl-2-piperidin-1-ylethyl)benzamide]
93 | 108 |  | 3090 | 108 | 6120 |  | O=C(NC[C@@H](C(=O)NO)N1CCCCC1)c1ccc(OCc2ccncc2)cc1 [Example 5, N—((S)-2-hydroxycarbamoyl-2-piperidin-1-yl-ethyl)-4-(pyridin-4-ylmethoxy)benzamide]
91 |  |  |  |  |  | 150 | O=C(NC[C@@H](C(=O)NO)N1CCCCC1)c1ccc(OCc2ccnc(Br)c2)cc1 [Example 8, 4-(2-bromopyridin-4-ylmethoxy)-N—((S)-2-hydroxycarbamoyl-2-piperidin-1-ylethyl)benzamide]
